One test deals with S. aureus #6538. The test is described as follows: ASTM E 2315 time-kill procedure, S. aureus. The format is cell-based. The note with it: contact time 15 seconds. On the procedure:
(§1) In vitro efficacy of these compositions was measured against E. coli, S. aureus, E. faecium, S. marcescens, S. aureus (MRSA), P. mirabilis, K. pneumoniae, and S. epidermidis. The test was conducted according to the ASTM E 2315 method, “Standard Guide for Assessment of Antimicrobial Activity Using a Time-Kill Procedure.” Contact time was 15 seconds.
(§2) In vitro efficacy of these compositions was measured against S. marcescen, and S. aureus. The test was conducted according to the ASTM E 2315 method, “Standard Guide for Assessment of Antimicrobial Activity Using a Time-Kill Procedure.” Contact time was 15 seconds.

In another test the test system is S. marcescens #14756. The test is described as follows: ASTM E 2315 time-kill procedure, S. marcescens. The format is cell-based. As to conditions: contact time 15 seconds. On the procedure:
as §1, §2

The mark [1] stands for this setting: 0.5 wt. % diol, 0 wt. % ethanol.
Setting [2] is: 0.5 wt. % diol, 15 wt. % ethanol.
[3] abbreviates: 0.5 wt. % diol, 30 wt. % ethanol.
Setting [4] is: 1.0 wt. % diol, 0 wt. % ethanol.
[5] abbreviates: 1.0 wt. % diol, 15 wt. % ethanol.
Setting [6] is: 1.0 wt. % diol, 30 wt. % ethanol.

On to `CCO` [ethanol], for which the “Log Reduction-S. aureus #6538” value in the test with S. aureus #6538 (0 wt. % diol, 30 wt. % ethanol) worked out at 0 log. In the test on S. marcescens #14756 (0 wt. % diol, 30 wt. % ethanol), the “Log Reduction-S. marcescens #14756” value came to 0.45 log.
Consider `CCCCCCC(O)CO` (centres unmarked) [1,2-octanediol], for which the “Log Reduction-S. aureus #6538” value in the test with S. aureus #6538 (setting [1]) came out at 0 log; in the test on S. aureus #6538 (setting [2]) it was 0.2 log; in the test with S. aureus #6538 (setting [3]), 0.1 log; in the test on S. aureus #6538 (setting [4]), 0.2 log; with S. aureus #6538 (setting [5]) it was 2.6 log; in the test with S. aureus #6538 (setting [6]), 0.9 log. Moreover, the “Log Reduction-S. marcescens #14756” value in the test with S. marcescens #14756 (setting [1]) is reported as 0.3 log; in the test with S. marcescens #14756 (setting [2]), 0.1 log; in the test on S. marcescens #14756 (setting [3]), more than 5.1 log; in the test with S. marcescens #14756 (setting [4]), 3.5 log; in the test with S. marcescens #14756 (setting [5]) it was 2.3 log; in the test with S. marcescens #14756 (setting [6]), more than 5.1 log.

These data come from US20240224993A1, “ANTIMICROBIAL COMPOSITIONS” (GOJO Industries, Inc., priority 2009, published 2024).
